Calls of active or inactive are those of the source. No cut-off for these calls is given here.
What was measured:
PC-3 = test: Antiproliferative activity against human PC3 cells incubated for 48 hrs by MTT assay; format: functional, cell-based; settings: PC-3, 48 h
MDA-MB-231 = test: Antiproliferative activity against human MDA-MB-231 cells incubated for 48 hrs by MTT assay; format: functional, cell-based; settings: MDA-MB-231, 48 h
MCF7 = test: Antiproliferative activity against human MCF7 cells incubated for 48 hrs by MTT assay; format: functional, cell-based; settings: MCF7, 48 h
HepG2 = test: Antiproliferative activity against human HepG2 cells incubated for 48 hrs by MTT assay; format: functional, cell-based; settings: HepG2, 48 h
A549 = test: Antiproliferative activity against human A549 cells incubated for 48 hrs by MTT assay; format: functional, cell-based; settings: A549, 48 h
HeLa [1] = test: Antiproliferative activity against human HeLa cells incubated for 48 hrs by MTT assay; format: functional, cell-based
HCT-116 = test: Antiproliferative activity against human HCT116 cells incubated for 48 hrs by MTT assay; format: functional, cell-based; settings: HCT-116, 48 h
SW480 = test: Antiproliferative activity against human SW480 cells incubated for 48 hrs by MTT assay; format: functional, cell-based; settings: SW480, 48 h
SK-BR-3 = test: Antiproliferative activity against human SKBR3 cells incubated for 48 hrs by MTT assay; format: functional, cell-based; settings: SK-BR-3, 48 h
SK-OV-3 = test: Antiproliferative activity against human SKOV3 cells incubated for 48 hrs by MTT assay; format: functional, cell-based; settings: SK-OV-3, 48 h
U-87 MG = test: Antiproliferative activity against human U87 cells incubated for 48 hrs by MTT assay; format: functional, cell-based, U-87MG ATCC
MRC5 = test: Cytotoxicity against human MRC5 cells incubated for 48 hrs by MTT assay; format: cell-based; settings: MRC5, 48 h
[2] = Selectivity index, ratio of IC50 for human MRC5 to IC50 for human A549; format: toxicity; settings: MRC5 cells and A549 cells, read-out: Ratio IC50
HeLa [3] = test: Induction of cell cycle arrest in human HeLa cells assessed as increase in cell population at sub-G1 phase at IC50 concentration after 48 hrs by RNase/propidium iodide staining based flow cytometry analysis; format: functional
HeLa [4] = test: Induction of apoptosis in human HeLa cells assessed as live cells at IC50 concentration after 48 hrs by AnnexinV-APC/propidium iodide staining based FACScalibur flow cytometry analysis (reference value: 92 %); format: functional
HeLa [5] = test: Induction of apoptosis in human HeLa cells assessed as early apoptotic cells at IC50 concentration after 48 hrs by AnnexinV-APC/propidium iodide staining based FACScalibur flow cytometry analysis (reference value: 3.23 %); format: functional
HeLa [6] = test: Induction of apoptosis in human HeLa cells assessed as late apoptotic cells at IC50 concentration after 48 hrs by AnnexinV-APC/propidium iodide staining based FACScalibur flow cytometry analysis (reference value: 4.30 %); format: functional
HeLa [7] = test: Induction of apoptosis in human HeLa cells assessed as necrotic cells at IC50 concentration after 48 hrs by AnnexinV-APC/propidium iodide staining based FACScalibur flow cytometry analysis (reference value: 0.457 %); format: functional
[8] = target: Epidermal growth factor receptor (Homo sapiens) (UniProt P00533); test: Inhibition of EGFR in human HeLa cells assessed as reduction in ERK 1/2 phosphorylation at IC50 concentration measured upto 48 hrs by Western blot analysis; format: cell-based
Epidermal growth factor receptor (Homo sapiens), sequence (P00533 whole entry): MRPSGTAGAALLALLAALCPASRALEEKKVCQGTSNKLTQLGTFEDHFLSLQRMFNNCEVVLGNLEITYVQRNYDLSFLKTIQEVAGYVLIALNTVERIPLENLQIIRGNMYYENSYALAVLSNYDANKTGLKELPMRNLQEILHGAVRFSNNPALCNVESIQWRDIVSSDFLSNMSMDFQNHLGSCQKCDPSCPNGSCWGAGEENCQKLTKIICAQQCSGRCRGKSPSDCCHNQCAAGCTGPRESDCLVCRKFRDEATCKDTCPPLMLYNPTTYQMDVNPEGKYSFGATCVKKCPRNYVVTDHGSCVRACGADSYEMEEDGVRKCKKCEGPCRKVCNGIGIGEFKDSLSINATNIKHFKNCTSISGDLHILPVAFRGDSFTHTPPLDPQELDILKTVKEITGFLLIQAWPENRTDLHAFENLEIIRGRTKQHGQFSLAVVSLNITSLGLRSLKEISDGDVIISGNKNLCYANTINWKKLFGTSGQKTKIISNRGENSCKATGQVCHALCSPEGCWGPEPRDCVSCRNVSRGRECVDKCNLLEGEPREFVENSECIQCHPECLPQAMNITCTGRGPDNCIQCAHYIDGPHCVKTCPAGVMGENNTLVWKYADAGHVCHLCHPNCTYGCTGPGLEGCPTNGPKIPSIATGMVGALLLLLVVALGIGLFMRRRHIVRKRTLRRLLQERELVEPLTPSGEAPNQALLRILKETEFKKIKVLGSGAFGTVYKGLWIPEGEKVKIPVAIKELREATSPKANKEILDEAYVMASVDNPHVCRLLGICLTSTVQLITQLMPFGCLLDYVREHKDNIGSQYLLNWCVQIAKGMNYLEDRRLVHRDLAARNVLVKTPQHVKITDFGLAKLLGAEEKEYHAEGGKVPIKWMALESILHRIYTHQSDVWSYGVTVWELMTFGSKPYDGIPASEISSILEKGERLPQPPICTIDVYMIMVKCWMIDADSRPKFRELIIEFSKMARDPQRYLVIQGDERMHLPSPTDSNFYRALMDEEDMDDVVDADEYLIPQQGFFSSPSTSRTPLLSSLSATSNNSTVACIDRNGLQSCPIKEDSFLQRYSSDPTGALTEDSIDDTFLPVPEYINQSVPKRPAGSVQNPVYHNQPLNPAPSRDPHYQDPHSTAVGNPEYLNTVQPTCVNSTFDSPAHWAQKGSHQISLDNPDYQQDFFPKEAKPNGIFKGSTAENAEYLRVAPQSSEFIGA

[9] = target: Epidermal growth factor receptor (Homo sapiens) (UniProt P00533); test: Inhibition of EGFR in human HeLa cells assessed as effect on AKT phosphorylation at IC50 concentration measured upto 48 hrs by Western blot analysis; format: cell-based
[10] = target: Epidermal growth factor receptor (Homo sapiens) (UniProt P00533); test: Inhibition of EGFR phosphorylation in human HeLa cells at IC50 concentration measured upto 48 hrs by Western blot analysis; format: cell-based
HeLa [11] = test: Induction of apoptosis in human HeLa cells assessed as live cells after 48 hrs by AnnexinV-APC/propidium iodide staining based FACScalibur flow cytometry analysis (reference value: 92 %); format: functional
HeLa [12] = test: Induction of apoptosis in human HeLa cells assessed as early apoptotic cells after 48 hrs by AnnexinV-APC/propidium iodide staining based FACScalibur flow cytometry analysis (reference value: 3.23 %); format: functional
HeLa [13] = test: Induction of apoptosis in human HeLa cells assessed as late apoptotic cells after 48 hrs by AnnexinV-APC/propidium iodide staining based FACScalibur flow cytometry analysis (reference value: 4.30 %); format: functional
HeLa [14] = test: Induction of apoptosis in human HeLa cells assessed as necrotic cells after 48 hrs by AnnexinV-APC/propidium iodide staining based FACScalibur flow cytometry analysis (reference value: 0.457 %); format: functional

For `C#Cc1cccc(Nc2ncnc3sc(NC(=O)/C=C/c4ccccc4)cc23)c1`, the IC50 (PC-3) was 0.4 µM, the IC50 (MDA-MB-231) was 5.05 µM and the IC50 (MCF7) was 38.4 µM. It also gave an IC50 (HepG2) of 58.1 µM, an IC50 (A549) of 10.1 µM and an IC50 (HeLa [1]) of 4.64 µM.
In the case of `COc1ccc(/C=C/C(=O)Nc2cc3c(Nc4ccc(Cl)c(Cl)c4)ncnc3s2)cc1`, the IC50 (PC-3) is reported as 0.79 µM, the IC50 (MDA-MB-231) is reported as 16.6 µM and the IC50 (MCF7) is reported as 20.1 µM. It also gave an IC50 (HepG2) of 30.6 µM, an IC50 (A549) of 3.32 µM and an IC50 (HeLa [1]) of 0.033 µM. The IC50 (HCT-116) was 7.41 µM, the IC50 (SW480) was 5.75 µM and the IC50 (SK-BR-3) was 11.9 µM. For the same molecule, the IC50 (SK-OV-3) was 10.7 µM, the IC50 (U-87 MG) was 4.4 µM and the IC50 (MRC5) was 18.7 µM. The selectivity ratio [2] was 5.6, the Activity (HeLa [3]) was “Active” and the Activity (HeLa [4]) was 66.8%. For the same molecule, the Activity (HeLa [5]) was 15.7%, the Activity (HeLa [6]) was 15.5% and the Activity (HeLa [7]) was 2%.
With `N#Cc1cccc(Nc2ncnc3cc(NC(=O)/C=C/c4ccccc4)sc23)c1` the IC50 (PC-3) was 0.54 µM, the IC50 (MDA-MB-231) was 1.04 µM and the IC50 (MCF7) was greater than 100 µM. It also gave an IC50 (HepG2) of 15.9 µM, an IC50 (A549) of 17.2 µM and an IC50 (HeLa [1]) of 7.22 µM.
Molecule `C#Cc1cccc(Nc2ncnc3cc(NC(=O)/C=C/c4ccccc4)sc23)c1` has an IC50 (PC-3) of 0.7 µM, an IC50 (MDA-MB-231) of 2.34 µM and an IC50 (MCF7) of 75.6 µM. It also gave an IC50 (HepG2) of 15.4 µM, an IC50 (A549) of 26.2 µM and an IC50 (HeLa [1]) of 20.5 µM.
Molecule `O=C(/C=C/c1ccccc1)Nc1cc2ncnc(Nc3ccc(Cl)c(Cl)c3)c2s1` has an IC50 (PC-3) of 0.26 µM, an IC50 (MDA-MB-231) of 2.41 µM and an IC50 (MCF7) greater than 100 µM. For the same molecule, the IC50 (HepG2) was 13.4 µM, the IC50 (A549) was 19.4 µM and the IC50 (HeLa [1]) was 10.7 µM.
With `O=C(/C=C/c1ccccc1)Nc1cc2c(Nc3cccc(Cl)c3F)ncnc2s1` the IC50 (PC-3) was 0.4 µM, the IC50 (MDA-MB-231) was 3.93 µM and the IC50 (MCF7) was 93.9 µM. For the same molecule, the IC50 (HepG2) was 44.6 µM, the IC50 (A549) was 26.2 µM and the IC50 (HeLa [1]) was 34.9 µM.
For `O=C(/C=C/c1ccc(O)cc1)Nc1cc2c(Nc3ccc(Cl)c(Cl)c3)ncnc2s1`, the IC50 (PC-3) was 0.3 µM, the IC50 (MDA-MB-231) was 1.98 µM and the IC50 (MCF7) was 60.6 µM. It also gave an IC50 (HepG2) of 42.9 µM, an IC50 (A549) of 34.3 µM and an IC50 (HeLa [1]) of 24.8 µM.
Work on `O=C(/C=C/c1ccccc1)Nc1cc2ncnc(Nc3ccc(F)c(Cl)c3)c2s1` yielded an IC50 (PC-3) of 0.2 µM, an IC50 (MDA-MB-231) of 2.1 µM and an IC50 (MCF7) of 30.9 µM. The IC50 (HepG2) was 10.6 µM, the IC50 (A549) was 6.67 µM and the IC50 (HeLa [1]) was 2.81 µM.
Molecule `COc1ccc(/C=C/C(=O)Nc2cc3c(Nc4cc(Cl)cc(Cl)c4)ncnc3s2)cc1` has an IC50 (PC-3) of 0.45 µM, an IC50 (MDA-MB-231) of 1.97 µM and an IC50 (MCF7) of 75.6 µM. The IC50 (HepG2) was 41.8 µM, the IC50 (A549) was 21.9 µM and the IC50 (HeLa [1]) was 43.3 µM.
`O=C(/C=C/c1ccccc1)Nc1cc2ncnc(Nc3cc(Cl)cc(Cl)c3)c2s1` gave an IC50 (PC-3) of 0.22 µM, an IC50 (MDA-MB-231) of 1 µM and an IC50 (MCF7) greater than 100 µM. The IC50 (HepG2) was 10.7 µM, the IC50 (A549) was 12.5 µM and the IC50 (HeLa [1]) was 3.21 µM.
Molecule `O=C(/C=C/c1ccccc1)Nc1cc2c(Nc3ccc(F)c(Cl)c3)ncnc2s1` has an IC50 (PC-3) of 0.7 µM, an IC50 (MDA-MB-231) of 7.6 µM and an IC50 (MCF7) of 14.3 µM. It also gave an IC50 (HepG2) of 22.8 µM, an IC50 (A549) of 11.2 µM and an IC50 (HeLa [1]) of 2.14 µM.
For `O=C(/C=C/c1ccccc1)Nc1cc2c(Nc3cc(Cl)cc(Cl)c3)ncnc2s1`, the IC50 (PC-3) was 0.39 µM, the IC50 (MDA-MB-231) was 11.5 µM and the IC50 (MCF7) was 5.8 µM. The IC50 (HepG2) was 21.8 µM, the IC50 (A549) was 0.04 µM and the IC50 (HeLa [1]) was 0.004 µM. For the same molecule, the IC50 (HCT-116) was 3.83 µM, the IC50 (SW480) was 4.93 µM and the IC50 (SK-BR-3) was 6.46 µM. It also gave an IC50 (SK-OV-3) of 10.9 µM, an IC50 (U-87 MG) of 4.49 µM and an IC50 (MRC5) of 28.8 µM. For the same molecule, the selectivity ratio [2] was 720, the Activity (HeLa [3]) was “Active” and the Activity (HeLa [4]) was 45.8%. The Activity (HeLa [5]) was 42.8%, the Activity (HeLa [6]) was 11% and the Activity (HeLa [7]) was 0.448%. For the same molecule, the inhibition [8] was “Active”, the inhibition [9] was “inactive” and the inhibition [10] was “Active”.
For `O=C(/C=C/c1ccccc1)Nc1cc2c(Nc3ccc(Cl)c(Cl)c3)ncnc2s1`, the IC50 (PC-3) was 0.48 µM, the IC50 (MDA-MB-231) was 4.4 µM and the IC50 (MCF7) was 15.3 µM. It also gave an IC50 (HepG2) of 30.1 µM, an IC50 (A549) of 7.6 µM and an IC50 (HeLa [1]) of 0.43 µM.
With `C#Cc1cccc(Nc2ncnc3cc(OCCOC)c(OCCOC)cc23)c1` [ERLOTINIB] the IC50 (PC-3) was 7 µM, the IC50 (MDA-MB-231) was 8.3 µM and the IC50 (MCF7) was 11.7 µM. For the same molecule, the IC50 (HepG2) was 28.8 µM, the IC50 (A549) was 3.8 µM and the IC50 (HeLa [1]) was 7.48 µM. The IC50 (HCT-116) was 23.3 µM, the IC50 (SW480) was 23 µM and the IC50 (SK-BR-3) was 49.3 µM. It also gave an IC50 (SK-OV-3) of 61.8 µM, an IC50 (U-87 MG) of 31.9 µM and an Activity (HeLa [11]) of 52.7%. It also gave an Activity (HeLa [12]) of 26.2%, an Activity (HeLa [13]) of 15% and an Activity (HeLa [14]) of 6.06%.
In the case of `COc1ccc(/C=C/C(=O)Nc2cc3ncnc(Nc4ccc(F)c(Cl)c4)c3s2)cc1`, the IC50 (PC-3) is reported as 0.1 µM, the IC50 (MDA-MB-231) is reported as 2.6 µM and the IC50 (MCF7) is reported as 29.1 µM. The IC50 (HepG2) was 13.9 µM, the IC50 (A549) was 22.7 µM and the IC50 (HeLa [1]) was 20.6 µM.

— ChEMBL document CHEMBL4373739, “6-Cinnamoyl-4-arylaminothienopyrimidines as highly potent cytotoxic agents: Design, synthesis and structure-activity relationship studies” (Eur J Med Chem, 2020)
